Test results from ChEMBL document CHEMBL4295262, “Evaluation of the utility of stem-cell derived cardiomyocytes for drug proarrhythmic potential” (2019).

Experiments:
Conditions in all cases: human, ipsc-cm
[1] = (§1) Electrical activity assay on cell lines treated with a given drug. DMSO was used as a vehicle and a control, unblinded dofetilide was used as a control.
[2] = as §1; remark: listed apart in the source
[3] = as §1; remark: listed apart in the source
[4] = as §1; assay type: ADME, cell-based
[5] = as §1; assay type: ADME, cell-based; remark: listed apart in the source
[6] = as §1; assay type: cell-based; set-up: APDc: unit not given here
[7] = as §1; assay type: ADME, cell-based; set-up: FPDc: unit not given here
[8] = 0.09507 µM, concentration (um) 0.0950736 uM
[9] = 0.3004 µM, concentration (um) 0.300433 uM
[10] = 0.9494 µM, concentration (um) 0.949367 uM
[11] = 0.003 µM, concentration (um) 0.003 uM
[12] = 0.03 µM, concentration (um) 0.03 uM
[13] = 0.3 µM, concentration (um) 0.3 uM
[14] = 0.03169 µM, concentration (um) 0.0316912 uM
[15] = 0.1001 µM, concentration (um) 0.100144 uM
[16] = 0.3165 µM, concentration (um) 0.316456 uM
[17] = 0.0009507 µM, concentration (um) 0.000950736 uM
[18] = 0.003004 µM, concentration (um) 0.00300433 uM
[19] = 0.009494 µM, concentration (um) 0.00949367 uM

**Q.** With `CN1CCN(C2=Nc3cc(Cl)ccc3Nc3ccccc32)CC1` [CLOZAPINE] as the compound, how does the APDc ([1]; 0.09507 µM) read?
**A.** 47.87

**Q.** What about the FPD measurement ([1]; 0.09507 µM) of the same compound?
**A.** 47.87 FPDc

**Q.** And the APDc ([1]; 0.3004 µM)?
**A.** 55.24

**Q.** And the FPD measurement ([1]; 0.3004 µM)?
**A.** 55.24 FPDc

**Q.** What about the APDc ([1]; 0.9494 µM) of the same compound?
**A.** 62.1

**Q.** What about the FPD measurement ([1]; 0.9494 µM) of the same compound?
**A.** 62.1 FPDc

**Q.** What about the APDc ([1]; 3 µM) of the same compound?
**A.** 73.69

**Q.** What about the FPD measurement ([1]; 3 µM) of the same compound?
**A.** 73.69 FPDc

**Q.** What about the FPD measurement ([2]; 0.09507 µM) of the same compound?
**A.** 1 Values Out Of 1 Were Excluded Due To Quiescence Or 0 Fpdc

**Q.** And the FPDc ([2]; 0.09507 µM)?
**A.** 1 Values Out Of 1 Were Excluded Due To Quiescence Or 0 Fpdc

**Q.** And the FPD measurement ([2]; 0.3004 µM)?
**A.** 1 Values Out Of 1 Were Excluded Due To Quiescence Or 0 Fpdc

**Q.** And the FPDc ([2]; 0.3004 µM)?
**A.** 1 Values Out Of 1 Were Excluded Due To Quiescence Or 0 Fpdc

**Q.** And the FPD measurement ([2]; 0.9494 µM)?
**A.** 1 Values Out Of 1 Were Excluded Due To Quiescence Or 0 Fpdc

**Q.** And the FPDc ([2]; 0.9494 µM)?
**A.** 1 Values Out Of 1 Were Excluded Due To Quiescence Or 0 Fpdc

**Q.** What about the FPD measurement ([2]; 3 µM) of the same compound?
**A.** 1 Values Out Of 1 Were Excluded Due To Quiescence Or 0 Fpdc

**Q.** What about the FPDc ([2]; 3 µM) of the same compound?
**A.** 1 Values Out Of 1 Were Excluded Due To Quiescence Or 0 Fpdc

**Q.** What about the FPDc ([3]; 0.09507 µM) of the same compound?
**A.** 68.88

**Q.** And the FPD measurement ([3]; 0.3004 µM)?
**A.** 5 Values Out Of 5 Were Excluded Due To Quiescence Or 0 Apdc

**Q.** What about the FPDc ([3]; 0.3004 µM) of the same compound?
**A.** 59.23

**Q.** And the FPD measurement ([3]; 0.9494 µM)?
**A.** 5 Values Out Of 5 Were Excluded Due To Quiescence Or 0 Apdc

**Q.** And the FPDc ([3]; 0.9494 µM)?
**A.** 63.68

**Q.** What about the FPDc ([3]; 3 µM) of the same compound?
**A.** 65.29

**Q.** What about the FPD measurement [4, 8] of the same compound?
**A.** 5 Values Out Of 5 Were Excluded Due To Quiescence Or 0 Apdc

**Q.** And the FPDc [4, 8]?
**A.** 25.04

**Q.** And the FPD measurement [4, 9]?
**A.** 5 Values Out Of 5 Were Excluded Due To Quiescence Or 0 Apdc

**Q.** And the FPDc [4, 9]?
**A.** 24.94

**Q.** What about the FPD measurement [4, 10] of the same compound?
**A.** 5 Values Out Of 5 Were Excluded Due To Quiescence Or 0 Apdc

**Q.** And the FPDc [4, 10]?
**A.** 25.07

**Q.** And the FPD measurement ([4]; 3 µM, concentration (um) 3 uM)?
**A.** 5 Values Out Of 5 Were Excluded Due To Quiescence Or 0 Apdc

**Q.** What about the FPDc ([4]; 3 µM, concentration (um) 3 uM) of the same compound?
**A.** 22.78

**Q.** Which APDc ([1]; 0.003 µM) does the source give for `O=c1[nH]c2ccccc2n1CCCN1CCC(n2c(=O)[nH]c3cc(Cl)ccc32)CC1` [DOMPERIDONE] here?
**A.** 72.4

**Q.** What about the FPD measurement ([1]; 0.003 µM) of the same compound?
**A.** 72.4 FPDc

**Q.** What about the APDc ([1]; 0.03 µM) of the same compound?
**A.** 67

**Q.** And the FPD measurement ([1]; 0.03 µM)?
**A.** 67 FPDc

**Q.** And the APDc ([1]; 0.3 µM)?
**A.** 78.3

**Q.** And the FPD measurement ([1]; 0.3 µM)?
**A.** 78.3 FPDc

**Q.** What about the APDc ([1]; 3 µM) of the same compound?
**A.** More Than Half The Wells Had A Quiescence Event Or Apdc Readings Of 0

**Q.** What about the FPD measurement ([1]; 3 µM) of the same compound?
**A.** More Than Half The Wells Had A Quiescence Event Or Apdc Readings Of 0

**Q.** What about the FPDc ([3]; 0.003 µM) of the same compound?
**A.** 73.87

**Q.** What about the FPDc ([3]; 0.03 µM) of the same compound?
**A.** 88.38

**Q.** And the FPDc ([3]; 0.3 µM)?
**A.** More Than Half The Wells Had A Quiescence Event Or Fpdc Readings Of 0

**Q.** And the FPD measurement ([3]; 3 µM)?
**A.** More Than Half The Wells Had A Quiescence Event Or Apdc Readings Of 0

**Q.** What about the FPDc ([3]; 3 µM) of the same compound?
**A.** More Than Half The Wells Had A Quiescence Event Or Fpdc Readings Of 0

**Q.** And the FPD measurement [5, 11]?
**A.** 47.3 FPDc

**Q.** And the FPDc [5, 11]?
**A.** 6 Values Out Of 6 Were Excluded Due To Quiescence Or 0 Fpdc

**Q.** What about the FPD measurement [5, 12] of the same compound?
**A.** 85.58 FPDc

**Q.** What about the FPDc [5, 12] of the same compound?
**A.** 6 Values Out Of 6 Were Excluded Due To Quiescence Or 0 Fpdc

**Q.** And the FPD measurement [5, 13]?
**A.** 42.56 FPDc

**Q.** What about the FPDc [5, 13] of the same compound?
**A.** 6 Values Out Of 6 Were Excluded Due To Quiescence Or 0 Fpdc

**Q.** What about the FPDc ([5]; 3 µM, concentration (um) 3 uM) of the same compound?
**A.** 6 Values Out Of 6 Were Excluded Due To Quiescence Or 0 Fpdc

**Q.** What does the source list for `O=C(CCCN1CC=C(n2c(=O)[nH]c3ccccc32)CC1)c1ccc(F)cc1` [DROPERIDOL]?
**A.** APDc ([1]; 0.03169 µM): 57.78; FPD measurement ([1]; 0.03169 µM): 57.78 FPDc; APDc ([1]; 0.1001 µM): 53.48; FPD measurement ([1]; 0.1001 µM): 53.48 FPDc; APDc ([1]; 0.3165 µM): 58.08; FPD measurement ([1]; 0.3165 µM): 58.08 FPDc; APDc ([1]; 1 µM): 67.51; FPD measurement ([1]; 1 µM): 67.51 FPDc; FPD measurement ([2]; 0.03169 µM): 1 Values Out Of 1 Were Excluded Due To Quiescence Or 0 Fpdc; FPDc ([2]; 0.03169 µM): 1 Values Out Of 1 Were Excluded Due To Quiescence Or 0 Fpdc; FPD measurement ([2]; 0.1001 µM): 1 Values Out Of 1 Were Excluded Due To Quiescence Or 0 Fpdc; FPDc ([2]; 0.1001 µM): 1 Values Out Of 1 Were Excluded Due To Quiescence Or 0 Fpdc; FPD measurement ([2]; 0.3165 µM): 1 Values Out Of 1 Were Excluded Due To Quiescence Or 0 Fpdc; FPDc ([2]; 0.3165 µM): 1 Values Out Of 1 Were Excluded Due To Quiescence Or 0 Fpdc; FPD measurement ([2]; 1 µM): 1 Values Out Of 1 Were Excluded Due To Quiescence Or 0 Fpdc; FPDc ([2]; 1 µM): 1 Values Out Of 1 Were Excluded Due To Quiescence Or 0 Fpdc; FPDc ([3]; 0.03169 µM): 71.23; FPDc ([3]; 0.1001 µM): 90.23; FPDc ([3]; 0.3165 µM): 123.3; FPDc ([3]; 1 µM): More Than Half The Wells Had A Quiescence Event Or Fpdc Readings Of 0; FPD measurement [5, 14]: 60.21 FPDc; FPDc [5, 14]: 6 Values Out Of 6 Were Excluded Due To Quiescence Or 0 Fpdc; FPD measurement [5, 15]: 132.5 FPDc; FPDc [5, 15]: 6 Values Out Of 6 Were Excluded Due To Quiescence Or 0 Fpdc; FPD measurement [5, 16]: 151.8 FPDc; FPDc [5, 16]: 6 Values Out Of 6 Were Excluded Due To Quiescence Or 0 Fpdc; FPD measurement ([5]; 1 µM, concentration (um) 1 uM): 41.51 FPDc; FPDc ([5]; 1 µM, concentration (um) 1 uM): 6 Values Out Of 6 Were Excluded Due To Quiescence Or 0 Fpdc

**Q.** For `O=c1[nH]c2ccccc2n1C1CCN(CCCC(c2ccc(F)cc2)c2ccc(F)cc2)CC1` [PIMOZIDE], which APDc [6, 17] is on record?
**A.** 66.03

**Q.** And the FPD measurement [6, 17]?
**A.** 66.03 FPDc

**Q.** What about the APDc [6, 18] of the same compound?
**A.** 67.09

**Q.** What about the FPD measurement [6, 18] of the same compound?
**A.** 67.09 FPDc

**Q.** And the APDc [6, 19]?
**A.** 74.77

**Q.** What about the FPD measurement [6, 19] of the same compound?
**A.** 74.77 FPDc

**Q.** What about the APDc [6, 12] of the same compound?
**A.** 98.75

**Q.** And the FPD measurement [6, 12]?
**A.** 98.75 FPDc

**Q.** And the FPD measurement ([2]; 0.0009507 µM)?
**A.** 1 Values Out Of 1 Were Excluded Due To Quiescence Or 0 Fpdc

**Q.** What about the FPDc ([2]; 0.0009507 µM) of the same compound?
**A.** 1 Values Out Of 1 Were Excluded Due To Quiescence Or 0 Fpdc

**Q.** What about the FPD measurement ([2]; 0.003004 µM) of the same compound?
**A.** 1 Values Out Of 1 Were Excluded Due To Quiescence Or 0 Fpdc

**Q.** And the FPDc ([2]; 0.003004 µM)?
**A.** 1 Values Out Of 1 Were Excluded Due To Quiescence Or 0 Fpdc

**Q.** And the FPD measurement ([2]; 0.009494 µM)?
**A.** 1 Values Out Of 1 Were Excluded Due To Quiescence Or 0 Fpdc

**Q.** What about the FPDc ([2]; 0.009494 µM) of the same compound?
**A.** 1 Values Out Of 1 Were Excluded Due To Quiescence Or 0 Fpdc

**Q.** And the FPD measurement ([2]; 0.03 µM)?
**A.** 1 Values Out Of 1 Were Excluded Due To Quiescence Or 0 Fpdc

**Q.** And the FPDc ([2]; 0.03 µM)?
**A.** 1 Values Out Of 1 Were Excluded Due To Quiescence Or 0 Fpdc

**Q.** And the FPDc [7, 17]?
**A.** 18.43

**Q.** What about the FPD measurement [7, 18] of the same compound?
**A.** 5 Values Out Of 5 Were Excluded Due To Quiescence Or 0 Apdc

**Q.** What about the FPDc [7, 18] of the same compound?
**A.** 26.86

**Q.** And the FPDc [7, 19]?
**A.** 37.06

**Q.** What about the FPDc [7, 12] of the same compound?
**A.** 13.57

**Q.** What about the FPD measurement [5, 17] of the same compound?
**A.** 46.31 FPDc

**Q.** What about the FPDc [5, 17] of the same compound?
**A.** 6 Values Out Of 6 Were Excluded Due To Quiescence Or 0 Fpdc

**Q.** What about the FPD measurement [5, 18] of the same compound?
**A.** 49.59 FPDc

**Q.** And the FPDc [5, 18]?
**A.** 6 Values Out Of 6 Were Excluded Due To Quiescence Or 0 Fpdc

**Q.** And the FPD measurement [5, 19]?
**A.** 61.97 FPDc

**Q.** What about the FPDc [5, 19] of the same compound?
**A.** 6 Values Out Of 6 Were Excluded Due To Quiescence Or 0 Fpdc

**Q.** What about the FPD measurement [5, 12] of the same compound?
**A.** 56.98 FPDc

**Q.** And the FPDc [5, 12]?
**A.** 6 Values Out Of 6 Were Excluded Due To Quiescence Or 0 Fpdc
